{"source": "patent US12492337B2", "about": "“Fluorescent probe, preparation method therefor and use thereof” (FLUORESCENCE DIAGNOSIS (SHANGHAI) BIOTECH COMPANY, priority 2017, dated 2025)", "key": {"[1]": {"tested_on": "HaloTag protein tag", "assay": "Probe mixed with HaloTag protein tag, fluorescence spectrophotometer (Example 86)", "type": "biochemical", "settings": "5 μM probe, 10 μM protein tag, 37° C., 1 hour", "method": "(§1) A probe was mixed with a corresponding HaloTag protein tag to obtain a mixed sample. The final concentration of the probe in the mixed sample was 5 μM and the final concentration of the protein tag was 10 μM. The mixed sample was incubated at 37° C. for 1 hour, and the sample was detected using a fluorescence spectrophotometer."}, "[2]": {"tested_on": "HaloTag-IAA17-H2B protein", "assay": "Fluorescence change on IAA-induced degradation of HaloTag-IAA17-H2B in Hela cells (Example 93)", "type": "cell-based", "settings": "1 μM probe, 1 hour labeling, then IAA-induced protein degradation", "method": "In order to verify the correlation between the fluorescent activation of the probe and the presence of protein, the HaloTag protein in mammalian cells was taken as an example, and the AID degradation system in Hela cells was used as an example to detect the fluorescence changes of HaloTag protein binding probes after protein degradation. First, Hela cells were implanted 20,000/cm^2 in a 20 mm glass-bottomed cell culture dish. After 14 hours, pcdna3.1-TIR1 and pcdna3.1-HaloTag-IAA17-H2B plasmids were transfected with lipofectmain2000 transfection reagent from invirtogen. 24 hours after cell transfection, the original cell culture medium was replaced with a phenol red-free DMEM medium containing 1 μM probe 61 to label the cells, and the cell samples were incubated in a 37° C. carbon dioxide incubator for 1 hour. After the labeling was completed, the fluorescence signal of cell labels was detected by imaging using a Leica SP8 laser confocal microscope. Then, indole acetic acid (IAA) was added to induce the degradation of HaloTag-IAA17-H2B protein, and the changes in cell fluorescence during protein degradation were detected. […] When proteins are present, fluorescence is activated, and when proteins are degraded, fluorescence disappears, which can be used to track and monitor the degradation process of target proteins."}, "[3]": {"assay": "Quantum yield of free probe not reacted with protein tag", "type": "physicochemical", "method": "as §1"}, "[4]": {"tested_on": "HaloTag protein tags in different subcellular organelles of Hela cells", "assay": "Labeling HaloTag protein tags in different subcellular organelles of Hela cells (Example 90)", "type": "cell-based", "settings": "0.2 μM probe, 2 hours, no washing; cytoskeleton, mitochondria, nucleus, Golgi, whole cells, lysosomes", "method": "In order to verify that probe 57, probe 59, probe 60, probe 61, probe 62, and probe 63 can be used to label target proteins located in different organelles. Hela cells were used as examples to detect the effect of probes on labeling HaloTag protein tags in different subcellular organelles. Hela cells were implanted 5000 cells per well in 96-well glass-bottom cell culture plates. After 14 hours, lipo2000 kit was used to transfect the plasmids localized by HaloTag protein tags in different organelles. The original culture medium was removed 24 hours after transfection, and the cells were washed twice with a phenol red-free DMEM medium, and incubated for 2 hours in a phenol red-free medium containing 0.2 μM probes, and the effect of cell labelling was detected by imaging using a Leica TCS-8 confocal microscope."}, "[5]": {"tested_on": "Hela cells stably expressing HaloTag protein tags", "assay": "Confocal imaging of labeled Hela cells stably expressing HaloTag protein tags (Example 89)", "type": "cell-based", "settings": "Homo sapiens, 5 μM probe, 2 hours, 37° C., confocal microscope, read-out: fluorescence signal enhancement in Hela cells expressing the protein tag", "method": "(§2) Hela cells are used as an example to test the labeling effect of compounds in mammalian cells. Hela cells and Hela-WT cells (Hela primitive cell, without a protein tag expressed) stably expressing HaloTag protein tags were planted in 14 mm 96-well glass bottom cell culture plates and stabilized for 10 hours. Probe 57, probe 59, probe 60, probe 61, probe 69, probe 75, probe 76, probe 82 were added to the culture medium and diluted to 5 μM, respectively. The cells were incubated in a 37° C. carbon dioxide incubator for 2 hours, and the fluorescence changes of the labeled cells were detected by imaging with a Leica TPS-8 confocal microscope."}, "[6]": {"tested_on": "Hela-WT cells", "assay": "Confocal imaging of Hela-WT cells without protein tag (Example 89)", "type": "cell-based", "settings": "5 μM probe, 2 hours, 37° C., confocal microscope", "method": "as §2"}, "[7]": {"assay": "Viscosity responsiveness: fluorescence intensity in glycerol versus methanol", "type": "physicochemical", "settings": "fluorescence intensity in glycerol to that in methanol", "procedure,_shortened": "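At 25 °C, with the same dye concentration and excitation wavelength, maximum emission intensity in glycerol was compared with intensity in methanol, giving a ratio. Dye concentrations ranged from 1×10^−7 M to 1×10^−5 M.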"}, "[8]": {"tested_on": "fusion protein CX43-HaloTag", "assay": "Tracing assembly of CX43-HaloTag intercellular channels in Hela cells (Example 94)", "type": "cell-based", "settings": "2 μM probe, 1 hour, Hela-CX43-HaloTag cells", "source_text": "To verify that the probe can be used to monitor the assembly and degradation of biomacromolecules in mammalian cells in real time, Hela cells were used as an example to detect the process of tracing, by a probe, the assembly of intercellular protein CX43 to form intercellular channels in mammalian cells. The C-terminus of CX43 gene was fused with HaloTag gene, and a Hela cell line stably expressing the fusion protein CX43-HaloTag was constructed and obtained by lentiviral infection technology. Hela-CX43-HaloTag cell lines were implanted in a 20 mm glass-bottom cell culture dish 10 hours before the probe labeling. When labeling, the probe 61 μM was first diluted to 2 μM with phenol red-free DMEM medium and replaced the original cell culture medium. The cells were incubated in a 37° C. carbon dioxide incubator for 1 hour. Thereafter, the cells were washed twice with fresh phenol red-free DMEM medium, and the unbound probe 61 was removed at intervals of 2 min. Then, a DMEM phenol-free medium containing 1 μM probe 57 was added to label the cells, and a Leica SP8 confocal microscope was used to monitor the fluorescence intensity and position changes of labeled cells at the corresponding fluorescence channels of probe 61 and probe 57 for a long time, which are shown in FIGS. 17A and 17B, respectively. […]"}}}
{"smiles": "CN(C)c1cc2sc(/C=C(\\C#N)C(=O)NCCOCCOCCCCCCCl)cc2s1", "note": "[Probe 61]", "values": [{"measurement": "The quantum yield after binding to Halo-tag", "setting": "[1]", "value": 0.59}, {"measurement": "Fluorescence enhancement", "setting": "[1]; fluorescence activation multiple after binding protein tag", "value": 668}, {"measurement": "Emission/nm", "setting": "[1]; fluorescence emission wavelength", "value": 552, "unit": "nm"}, {"measurement": "fluorescence signal after indoleacetic acid added for 90 min", "setting": "[2]", "value": "almost invisible"}, {"measurement": "The quantum yield of the free probe", "setting": "[3]", "value": 0.0012}, {"measurement": "effect of cell labelling of subcellular organelles", "setting": "[4]", "value": "clearly display a variety of subcellular organelle structures without washing"}, {"measurement": "fold induction at 5 µM", "setting": "[5]", "value": "~200"}, {"measurement": "fluorescent signal in Hela-WT cells", "setting": "[6]", "value": "no corresponding fluorescent signal could be detected"}, {"measurement": "ratio", "setting": "[7]", "value": 817}, {"measurement": "fluorescent signal in the probe 61 fluorescence channel", "setting": "[8]", "value": "long column-shaped specific fluorescent signal between the two cells"}]}
